# Test results taken from patent publication US8889705B2, “Noscapine analogs and their use in treating cancers” (Emory University, priority 2007, dated 2014).
# Key:
# [1] = system: CEM/VLB100 cells; conditions: CEM/VLB100 (Beck and Cirtain, 1982); cited from earlier work
# [2] = system: CEM/VM-1-5 cells; conditions: CEM/VM-1-5 (Morgan et al., 2000); cited from earlier work
# [3] = system: tubulin; conditions: even at 100 μM (Zhou et al., 2003); cited from earlier work
# [4] = system: MCF-7 cells; assay: Cell cycle analysis (propidium iodide, flow cytometry); assay type: cell-based, human; conditions: MCF-7, 25 μM, mean ± S.E.M.
# Method: The flow cytometric evaluation of the cell cycle status was performed as described previously. Briefly, 2×10^6 cells were centrifuged, washed twice with ice-cold PBS, and fixed in 70% ethanol. Tubes containing the cell pellets were stored at 4° C. for at least 24 hours. Cells were then centrifuged at 1000×g for 10 min and the supernatant was discarded. The pellets were washed twice with 5 ml of PBS and then stained with 0.5 ml of propidium iodide (0.1% in 0.6% Triton-X in PBS) and 0.5 ml of RNase A (2 mg/ml) for 45 minutes in dark. Samples were then analyzed on a FACSCalibur flow cytometer (Beckman Coulter Inc., Fullerton, Calif.).
# [5] = system: MCF-7 cells; assay: Sulforhodamine B cell proliferation assay; assay type: cell-based, human; conditions: Homo sapiens, MCF7, 72 h, MCF-7, 72 hours, SRB
# Method: (§1) Sulforhodamine B (SRB) assay: The cell proliferation assay was performed in 96-well plates as described previously. Adherent cells (MCF-7 and MDA-MB-231) were seeded in 96-well plates at a density of 5×10^3 cells per well. They were treated with increasing concentrations of the halogenated analogs the next day while in log-phase growth. After 72 hours of drug treatment, cells were fixed with 50% trichloroacetic acid and stained with 0.4% sulforhodamine B dissolved in 1% acetic acid. After 30 minutes, cells were then washed with 1% acetic acid to remove the unbound dye. The protein-bound dye was extracted with 10 mM Tris base to determine the optical density at 564-nm wavelength.
# [6] = system: MDA-MB-231 cells; assay: Sulforhodamine B cell proliferation assay; assay type: cell-based; conditions: Homo sapiens; MDA-MB-231, 72 hours, SRB
# Method: as §1
# [7] = system: CEM cells; assay: In vitro cell proliferation MTS assay; assay type: cell-based; conditions: Homo sapiens, CCRF-CEM, 72 hours
# Method: (§2) Suspension cells (CEM, CEMNLB100 and CEM/VM-1-5) were cultured in RPMI-1640 media containing 10% FBS and then seeded into 96-well plates at a density of 5×10^3 cells per well and were treated with increasing gradient concentrations of 9-nitro-nos for 72 hours. Measurement of cell proliferation was performed colorimetrically by 3-(4,5-dimethylthiazol-2-yl)-5-(3-carboxymethoxyphenyl)-2-(4-sulphophenyl)-2H-tetrazolium, inner salt (MTS) assay, using the CellTiter96 AQueous One Solution Reagent (Promega, Madison, Wis.). Cells were exposed to MTS for 3 hours and absorbance was measured using a microplate reader (Molecular Devices, Sunnyvale, Calif.) at an optical density (OD) of 490 nm. The percentage of cell survival as a function of drug concentration for both the assays was then plotted to determine the IC50 value, which stands for the drug concentration needed to prevent cell proliferation by 50%.
# as §2, with “(CEM)” for “(CEM, CEMNLB100 and CEM/VM-1-5)”, “were” for “were cultured in RPMI-1640 media containing 10% FBS and then”, “increasing” for “increasing gradient”, “all halogenated analogs” for “9-nitro-nos”
# [8] = target: T1, tubulin; conditions: values with literature reference [18], [12], [43]; read-out: dissociation constant (Kd) for binding to tubulin; cited from earlier work
# T1 construct: other: 2 μM tubulin, 45 min at 37° C., double reciprocal plot; rate and extent of tubulin polymerization; other: 25 μM or 100 μM
compound,measurement,setting,value
CC[C@]1(O)C[C@@H]2CN(CCc3c([nH]c4ccccc34)[C@@](C(=O)OC)(c3cc4c(cc3OC)N(C)[C@H]3[C@@](O)(C(=O)OC)[C@H](OC(C)=O)[C@]5(CC)C=CCN6CC[C@]43[C@@H]65)C2)C1 [vinblastine],resistance to vinblastine,[1],270 fold
COc1cc([C@@H]2c3cc4c(cc3[C@@H](O[C@@H]3O[C@@H]5CO[C@@H](c6cccs6)O[C@H]5[C@H](O)[C@H]3O)[C@H]3COC(=O)[C@H]23)OCO4)cc(OC)c1O [teniposide],resistance to teniposide,[2],400 fold
"COc1ccc2c(c1OC)C(=O)O[C@@H]2[C@H]1c2c(cc3c(c2OC)OCO3)CCN1C [Nos, (S)-6,7-dimethoxy-3-((R)-4-methoxy-6-methyl-5,6,7,8-tetrahydro[1,3]-dioxolo-[4,5-g]isoquinolin-5-yl)isobenzo-furan-1(3H)-one, reference compound]",microtubule polymerization upon binding tubulin,[3],does not significantly promote or inhibit microtubule polymerization
same,G0/G1,[4]; 0 h,54.8 ± 0.03%
same,G2/M,[4]; 0 h,29.9 ± 2.2%
same,S,[4]; 0 h,13.2 ± 0.2%
same,Sub-G1,[4]; 0 h,0.2 ± 0.03%
same,G0/G1,[4]; 24 h,18.3 ± 3.3%
same,G2/M,[4]; 24 h,50.2 ± 3.6%
same,S,[4]; 24 h,3.4 ± 0.8%
same,Sub-G1,[4]; 24 h,10.2 ± 1.2%
same,G0/G1,[4]; 48 h,19.8 ± 1.9%
same,G2/M,[4]; 48 h,28.07 ± 0.2%
same,S,[4]; 48 h,4.1 ± 0.6%
same,Sub-G1,[4]; 48 h,36.8 ± 3.7%
same,G0/G1,[4]; 72 h,20.5 ± 0.2%
same,G2/M,[4]; 72 h,26.3 ± 0.2%
same,S,[4]; 72 h,7.06 ± 0.2%
same,Sub-G1,[4]; 72 h,36.9 ± 0.2%
same,IC50,[5],39.6 ± 2.2 µM
same,IC50,[6],36.3 ± 1.8 µM
same,IC50,[7],16.6 ± 2.4 µM
same,Kd,[8],144 ± 2.8 µM
